Source: PubChem BioAssay AID434951 (Broad Institute, 2010)
The source made the active and inactive calls.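 How the source made its calls: active means a fitted half-maximal concentration EC50 for the rise in nuclear signal no higher than ten times the top dose tested; inconclusive means flat fit with activity between 30% and 70%, or unusable fit; inactive means EC50 beyond ten times the top dose.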

Target: Hypoxia-inducible factor 1-alpha (Homo sapiens) (UniProt Q16665)
Assay: activators of HIF1alpha nuclear accumulation, confirmation, imaging, fluorescence, U2OS GFP-HIF1alpha (AID 434951)
Conditions: U2OS GFP-HIF1alpha nuclear intensity, high-content imaging

Chain of Hypoxia-inducible factor 1-alpha (Homo sapiens) (Q16665 whole entry, looked up): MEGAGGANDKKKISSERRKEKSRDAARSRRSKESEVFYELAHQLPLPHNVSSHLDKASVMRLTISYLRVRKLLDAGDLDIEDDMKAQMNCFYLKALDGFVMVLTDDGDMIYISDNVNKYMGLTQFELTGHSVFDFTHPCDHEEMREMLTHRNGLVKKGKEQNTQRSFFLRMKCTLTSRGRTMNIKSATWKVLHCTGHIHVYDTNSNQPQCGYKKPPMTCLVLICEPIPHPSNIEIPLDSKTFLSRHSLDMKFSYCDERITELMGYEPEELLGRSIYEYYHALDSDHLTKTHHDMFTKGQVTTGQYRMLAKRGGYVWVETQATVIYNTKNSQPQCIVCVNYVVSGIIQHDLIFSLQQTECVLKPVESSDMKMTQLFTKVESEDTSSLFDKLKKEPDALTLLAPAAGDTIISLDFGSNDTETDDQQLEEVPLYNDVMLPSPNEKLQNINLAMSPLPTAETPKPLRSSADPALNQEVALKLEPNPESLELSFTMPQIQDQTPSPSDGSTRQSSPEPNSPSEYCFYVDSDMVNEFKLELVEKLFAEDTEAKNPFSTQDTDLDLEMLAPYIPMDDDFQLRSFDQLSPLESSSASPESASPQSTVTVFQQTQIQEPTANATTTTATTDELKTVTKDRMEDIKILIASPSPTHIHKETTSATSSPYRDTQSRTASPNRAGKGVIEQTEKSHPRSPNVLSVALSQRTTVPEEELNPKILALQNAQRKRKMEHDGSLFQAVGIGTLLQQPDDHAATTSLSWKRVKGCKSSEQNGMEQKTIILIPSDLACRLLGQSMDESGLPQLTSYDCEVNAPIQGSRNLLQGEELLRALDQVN

| SMILES | EC50 |
| --- | --- |
| Cc1cc(C)nc(N/N=C/c2cc(Br)ccc2O)n1 | 8.31 µM |
| COc1ccc(CC(=O)N2CCN(C(=O)Cc3ccc(OC)cc3)CC2)cc1 | > 35 µM (inactive) |
| Oc1ccc(CN2CCc3ccccc3C2)c2cccnc12 | 2.4 µM |
| COC(=O)Cc1ccc(NC(=S)NC(C)(C)C)cc1 | > 35 µM (inactive) |
| Cc1c(Cl)c([N+](=O)[O-])nn1Cc1ccc(C(=O)N/N=C\c2cc(Cl)ccc2O)o1 | 9.26 µM |
| CCOC(=O)C1CCCN(C(=O)c2ccc3nc(-c4ccccc4)c(-c4ccccc4)nc3c2)C1 (centres undefined) | > 35 µM (inactive) |
| Oc1cccc(/C=N/c2c(-c3ccco3)nc3ccccn23)c1 | > 35 µM (inactive) |
| COC(=O)/C(=C(/F)SCC(C)=O)C(F)(F)F | > 35 µM (inactive) |
| Cc1ccc2c(c1)cc(C(=O)NCc1ccccc1)n2C | > 35 µM (inactive) |
| Cc1snc(SCC(=O)N/N=C(\N)COc2cccc(C(F)(F)F)c2)c1C#N | 22.5 µM |
| CCN(CC)S(=O)(=O)c1ccc(N/N=C/c2cc(OC)ccc2O)nc1 | 4.31 µM |
| O=C(N/N=C\c1cc(Cl)ccc1O)c1ccc(S(=O)(=O)N2CCCCC2)cc1 | 5.75 µM |
| COc1ccc2[nH]c(C(=O)N/N=C/c3ccccc3OC)cc2c1 | > 35 µM (inactive) |
| CC(C)c1nnc(NC(=O)CCC(=O)NC2CC2)s1 | > 35 µM (inactive) |
| S=C(N/N=C/c1cccc2ccccc12)Nc1cccc(Cl)c1 | 31.9 µM |
| CC(C)NC(=O)NC(=O)CSc1nnc(-c2ccccc2F)n1N | > 35 µM (inactive) |
| CCOC(=O)c1[nH]cnc1N=Nc1c(O)ccc2ccccc12 | 2.2 µM |
| Oc1ccc2ccccc2c1N=Nc1ccccn1 | 9 µM |
| CC1CCN(Cc2c(C(=O)N/N=C/c3cc(Cl)ccc3O)nnn2-c2nonc2N)CC1 | 13.9 µM |
| CCCc1[nH]nc2c1C(c1ccoc1)C(C#N)=C(N)O2 (centres undefined) | > 35 µM (inactive) |
| CC(C)c1nc(CNC(=O)CCc2nnc(-c3ccsc3)o2)cs1 | > 35 µM (inactive) |
| CCn1ncc(C2=NOC(C(=O)Nc3ccc4c(c3)OCO4)C2)c1C (centres undefined) | > 35 µM (inactive) |
| C[C@@H](C(=O)Nc1ccc2c(c1)OCCO2)n1c(=O)[nH]c2ccccc2c1=O | > 35 µM (inactive) |
| O=[N+]([O-])c1cc(S(=O)(=O)c2ccc(O)c([N+](=O)[O-])c2)ccc1O | > 35 µM (inactive) |
| Cc1cc2ccc3ccccc3c2cc1CN(C)C | > 35 µM (inactive) |
| CCC(C)(C)c1nnc(NC(=O)C2CCN(C(=O)c3ccco3)CC2)s1 | > 35 µM (inactive) |

| SMILES | EC50 |
| --- | --- |
| CCCCn1c(=O)c2c(O)cc(=O)oc2c2ccccc21 | > 35 µM (inactive) |
| Cc1cc(Nc2ccccc2)cc(=O)n1C | > 35 µM (inactive) |
| Cc1nn(C)cc1S(=O)(=O)NCc1ccc2c(c1)OCO2 | > 35 µM (inactive) |
| CN(C)C(=O)CSc1nc2ccccc2n1Cc1ccccc1 | > 35 µM (inactive) |
| Cc1ccc(/C=N/NC(=O)CN2CCN(Cc3ccccc3Cl)CC2)o1 | > 35 µM (inactive) |
| CC1SC(=NC(=O)c2ccncc2)NC1=O (centres undefined) | > 35 µM (inactive) |
| O=C(CC1SC(N2CCCC2)=NC1=O)Nc1ccc(C(=O)Nc2ncccc2O)cc1 (centres undefined) | 29.7 µM |
| CCCOc1cccc(C2C(C(=O)c3ccco3)=C(O)C(=O)N2CCCn2ccnc2)c1 (centres undefined) | > 35 µM (inactive) |
| CC(=O)Nc1ccc(NC(=O)CCC(=O)OCC(=O)c2ccc(F)cc2)cc1 | > 35 µM (inactive) |
| Cc1cc(C)c(NS(=O)(=O)c2ccc3c(c2)NC(=O)CCS3)c(C)c1 | > 35 µM (inactive) |
| Cc1nnc(-c2ccccc2)c(=O)n1/N=C/c1c(O)ccc2ccccc12 | 8.4 µM |
| COc1ccc(C)cc1NC(=O)c1ccc(N(C)S(C)(=O)=O)cc1 | > 35 µM (inactive) |
| Cc1cc(NC(=O)CCCS(=O)(=O)c2nc(-c3cccs3)cc(C(F)(F)F)n2)no1 | > 35 µM (inactive) |
| CCC1Oc2ccccc2N(CC(=O)Nc2ccccc2OC)C1=O (centres undefined) | > 35 µM (inactive) |
| CCOc1ccc(N2C(=O)CC(Sc3nc(C)cc(C)n3)C2=O)cc1 (centres undefined) | > 35 µM (inactive) |
| Cc1ccccc1Nc1c(-c2ccccn2)nc2ccccn12 | 8.61 µM |
| c1cnc(N2CCN(c3ccc4ccccc4n3)CC2)nc1 | > 35 µM (inactive) |
| CCNS(=O)(=O)c1ccc(NC(=O)c2cncc(Br)c2)cc1 | > 35 µM (inactive) |
| CCCOC(=O)NC1C(NC(=O)OCCC)N(C)C(=O)N1C (centres undefined) | > 35 µM (inactive) |
| CCCC(=O)NC(c1ccccc1Cl)c1ccc2cccnc2c1O (centres undefined) | 6.66 µM |
| CCOC(=O)c1c(C)nc2cc(C)ccn12 | > 35 µM (inactive) |
| CS(=O)(=O)c1ccc2nc(NC(=O)C3CC(=O)N(c4ccc(F)cc4)C3)sc2c1 (centres undefined) | > 35 µM (inactive) |
| c1ccc(CSC2=NNC(c3ccccn3)S2)cc1 (centres undefined) | 18.6 µM |
| COc1cc(C(=O)N/N=C(\c2ccccc2)c2ccccn2)cc(OC)c1OC | 11.3 µM |
| CCCC(=O)NC(c1ccc(Cl)cc1Cl)c1ccc2cccnc2c1O (centres undefined) | 2.35 µM |
| COc1cccc(/C=N/NC(=O)c2ccc(-c3ccccc3)cc2)c1O | 30.5 µM |

| SMILES | EC50 |
| --- | --- |
| COc1ccc(C(=O)NCCc2nc3cc([N+](=O)[O-])ccc3n2C)cc1 | > 35 µM (inactive) |
| Cc1nc(NCCc2ccccc2)c(C#N)c(C)c1[N+](=O)[O-] | > 35 µM (inactive) |
| Cc1ccc(NC(=O)Nc2cccc(F)c2)nc1 | > 35 µM (inactive) |
| O=C(CSc1nnc(-c2ccco2)n1Cc1ccco1)NCc1ccccc1 | > 35 µM (inactive) |
| c1ccc(OCc2nc(-c3ccncc3)no2)cc1 | > 35 µM (inactive) |
| NC(=S)NNC(=O)c1cc(C(F)(F)F)cc(C(F)(F)F)c1 | > 35 µM (inactive) |
| COc1ccc(CCNC(=O)COC(=O)CCC(=O)c2ccc(F)cc2)cc1OC | > 35 µM (inactive) |
| Cn1nnnc1N=N/C(=N/Nc1ccccc1)c1ccccc1 | 7.53 µM |
| O=C(Cn1nc(-c2ccccc2Cl)ccc1=O)Nc1ccccc1-c1ccccc1 | > 35 µM (inactive) |
| CC(=O)N(O)CCCCCNC(=O)CCC(=O)N(O)CCCCCNC(=O)CCC(=O)N(O)CCCCCN | 5.56 µM |
| CN(c1cccc(Cl)c1)S(=O)(=O)c1cccc(C(=O)Nc2nc3ccccc3[nH]2)c1 | > 35 µM (inactive) |
| O=c1cc(CO)[nH]cc1OCc1ccccc1 | > 35 µM (inactive) |
| Cn1nnc2cc(C(=O)N3CCC(c4ccccc4)C3)ccc21 (centres undefined) | > 35 µM (inactive) |
| Cc1ccccc1-c1nc2ccccc2c(=O)n1/N=C/c1ccccc1[N+](=O)[O-] | > 35 µM (inactive) |
| CCCCC(=O)N1CCN(c2nc3ccc(F)cc3s2)CC1 | > 35 µM (inactive) |
| CC(=O)NC(c1cccc([N+](=O)[O-])c1)c1ccc2cccnc2c1O (centres undefined) | 10.7 µM |
| Cc1ccc(-c2cc(N)n(-c3ccc(F)cc3)n2)cc1 | > 35 µM (inactive) |
| CCN(CCCCCN(C)C)Cc1cc2ccccc2o1 | > 35 µM (inactive) |
| Cn1cccc1C(=O)NC(=O)COC(=O)c1cc(S(=O)(=O)N2CCCCC2)ccc1Cl | > 35 µM (inactive) |
| CCN(CC)c1ccc(/C=N/Nc2nc(C)cc(=O)[nH]2)c(O)c1 | 34.4 µM |
| COC(=O)C1C(=O)N2CCCSC2=C(C#N)C1c1cccs1 (centres undefined) | > 35 µM (inactive) |
| O=C(N/N=C/c1c(O)ccc2ccccc12)c1[nH]ncc1Br | 7.11 µM |
| O=C(NCc1nc2ccccc2[nH]1)c1c(F)c(F)c(F)c(F)c1F | > 35 µM (inactive) |
| Cn1cccc1-c1cc(C(=O)N/N=C/c2cc(Br)ccc2O)[nH]n1 | 4.69 µM |
| CC(=O)N1CCC(=NNC(=O)c2cc3ccccc3cc2O)CC1 | > 35 µM (inactive) |
| Cn1c(CCNC(=O)c2ccco2)nc2cc(NC(=O)C3CCCCC3)ccc21 | > 35 µM (inactive) |

| SMILES | EC50 |
| --- | --- |
| CCN(CC)c1ccc(/C=N/NC(=O)c2cnccn2)c(O)c1 | 9.54 µM |
| CC(OC(=O)COc1ccc(Nc2ccccc2)cc1)C(=O)N(C)c1ccccc1 (centres undefined) | > 35 µM (inactive) |
| Cc1nc2nc(-c3ccco3)nn2c(C)c1Cl | > 35 µM (inactive) |
| CN(CC(=O)Nc1ccc(S(=O)(=O)N2CCCC2)cc1)CC(=O)Nc1cccc(F)c1 | > 35 µM (inactive) |
| COc1ccc(C(=O)N/N=C(\c2ccccc2)c2ccccn2)cc1 | 11.5 µM |
| Cc1ccc(-n2cc(CN3CCC(CO)(Cc4ccccc4)CC3)cn2)cc1 | > 35 µM (inactive) |
| O=C(CSCC(=O)Nc1ccccc1)N/N=C/c1c(O)ccc2ccccc12 | 4.45 µM |
| O=C1CC(Nc2ccccc2)C(=O)N1Cc1ccccc1 (centres undefined) | > 35 µM (inactive) |
| Cc1ccc(-c2nnn(CC(=O)N(Cc3cccs3)C(C(=O)NC3CCCCC3)c3ccco3)n2)o1 (centres undefined) | 33.4 µM |
| CCCNC(=O)c1cc2nc(-c3ccccc3)cc(C(F)(F)F)n2n1 | > 35 µM (inactive) |
| COc1ccc(/C=N/NC(=O)c2nc(-c3ccccc3)n(-c3ccccc3)n2)c(O)c1 | 25.4 µM |
| Oc1ccc(N=Nc2ccc3c(c2)OCCO3)c2cccnc12 | > 35 µM (inactive) |
| CCN(CC)c1ccc(/C=N/NC(=O)c2ccc3nc[nH]c3c2)c(O)c1 | 10.5 µM |
| COc1ccccc1C(=O)Oc1ccccc1C(=O)Nc1ccccc1 | > 35 µM (inactive) |
| COc1ccc(OC)c(CNC(=O)C2CCCN(S(=O)(=O)N3CCC(C)CC3)C2)c1 (centres undefined) | > 35 µM (inactive) |
| CC(NC(=O)c1cc2c(s1)CS(=O)(=O)C2)c1ccccc1 (centres undefined) | > 35 µM (inactive) |
| CC(=O)c1cccc(NS(=O)(=O)c2ccc(-c3cc(C)no3)s2)c1 | > 35 µM (inactive) |
| CCN(CCCNC(=O)CCc1nc(-c2ccc(OC)cc2)no1)c1cccc(C)c1 | > 35 µM (inactive) |
| CC(C(=O)N1CCOCC1)N1c2cccc3cccc(c23)S1(=O)=O (centres undefined) | > 35 µM (inactive) |
| Cc1ccc(C2(C)NC(=O)N(CC(=O)Nc3ccccc3N3CCCC3)C2=O)cc1 (centres undefined) | > 35 µM (inactive) |
| CCN(CC)S(=O)(=O)c1ccc(N/N=C(\C)c2ccc(OC)cc2O)nc1 | 7.86 µM |
| COc1ccc(CN2CCNC(=O)C2CC(=O)N(C)CC2CCOCC2)cc1OC (centres undefined) | > 35 µM (inactive) |
| O=C(NC1CCCC1)c1cc(-c2cccs2)on1 | 7.26 µM |
| COc1ccc(/C=C(\C#N)c2nc3ccccc3[nH]2)cc1O | > 35 µM (inactive) |
| O=C(N/N=C/c1cc(Br)ccc1OC(=O)c1ccc(Br)cc1)c1ccncc1 | > 35 µM (inactive) |
| C/C(=N\NC(=O)c1nnn(-c2nonc2N)c1-c1ccccc1)c1ccccc1O | 11.1 µM |
